The data set relates to beta-lactamase. The data set is described as follows: In-vitro cleavage of the OSTA-1 prodrug by beta-lactamase (release of trans-cinnamaldehyde monitored by UV absorption at 285 nm). It is filed as biochemical. As to the method:
Cleavage of the OSTA-1 prodrug was tested in vitro by contact with a beta-lactamase in saline aqueous media.
The cleavage test is performed in physiological saline buffer (Phosphate Buffer Saline, PBS) at pH 7.0. The OSTA-1 molecule is added at a concentration of 100 microM, along with commercial beta-lactamase at a concentration of 1 unit per mL. Incubation is carried out at 37° C. The appearance of free trans-cinnamaldehyde in the medium is then monitored by UV absorption at 285 nm.
The release of the active ingredient, in this case trans-cinnamaldehyde, was monitored by UV absorption at 285 nm. The progress of the release of the prodrug molecule's active ingredient (100 microM) was observed, in the presence and absence of beta-lactamase.

From patent US20260158148A1, “PRODRUG INTENDED FOR THE TREATMENT OF BACTERIAL […] TO A[…] THE BETA-LACTAM FAMILY” (Osta Therapeutics, priority 2022, published 2026) come the findings set out here.

SMILES strings stand for the structures.

As for `COC(/C=C/c1ccccc1)N(C)C(=O)OCC1=C(C(=O)O)N2C(=O)[C@@H](NC(=O)Cc3cccs3)[C@H]2SC1` (stereo partly drawn) [OSTA-1], under “in vitro, saline aqueous media”, the “cleavability by beta-lactamase (conclusion)” value was “cleavable by beta-lactamase and releases the active ingredient”. Besides, the “spontaneous release of the active ingredient in the absence of beta-lactamase” value (prodrug 100 microM, PBS pH 7.0, 37° C., no beta-lactamase, UV absorption at 285 nm) is “no spontaneous release”. Further, for the setting “prodrug 100 microM, commercial beta-lactamase 1 unit per mL, PBS pH 7.0, 37° C., UV absorption at 285 nm, after two hours”, the “release of the active ingredient (trans-cinnamaldehyde) in the presence of beta-lactamase” value was “released in significant quantities”.
